Columns and labels:
Assay in all cases: NCI-60 Human Tumor Cell Lines Screen, one-dose screen
Format in all cases: cell-based
[1] = system: Breast Cancer cells (MDA-MB-468); conditions: MDA-MB-468 cells, 10^-5 M, 2 days
Method: (§1) Anticancer activities of the exemplary isatin derivatives were tested by the NIH National Cancer Institutes (NCI), with results summarized in FIGS. 2A-3B. The anticancer activity was tested by NCI, division of cancer treatment and diagnosis, according to the NCI-60 Human Tumor Cell Lines Screen, one-dose screen (https://dtp.cancer.gov/discovery_development/nci-60/methodology.htm). This screening allows for qualified synthesized chemicals to be subjected to an anticancer test against 60 different cancer cell lines. Briefly, exemplary T1 or T2 was dissolved in DMSO:Glycerol, 9:1, at 4 mmol and kept frozen prior to use. For inoculation, a 96 well microtiter was used for the study of different cell lines. Based on the doubling time for each cell line, the well density varied. The plates were incubated at 37° ° C., 5% CO2, 95% air and 100% relative humidity for 1 day. The exemplary T1 or T2 or a control were added to the plates at a concentration of 10^−5 M. After 2 more days, the plates were fixed and stained to identify growth inhibition relative to cells without drug treatment. Anti-proliferative activity was determined based on careful analysis of historical DTP screening data. Cell death and net growth inhibition were determined based on a time zero control. A value of 100 indicates no growth inhibition. A value of 40 indicates 60% growth inhibition. A value of 0 indicates no net growth over the course of the experiment. A value of −40 indicates 40% lethality.

[2] = system: Melanoma cells (MDA-MB-435); conditions: MDA-MB-435 cells, 10^-5 M, 2 days
Method: as §1

[3] = system: Non-Small Cell Lung Cancer cells (EKVX); conditions: 10^-5 M, 2 days
Method: as §1

[4] = system: Renal Cancer cells (CAKI-1); conditions: CAKI-1 cells, 10^-5 M, 2 days
Method: as §1

Structure (SMILES)	anticancer activity compared to control (reduction) [1] [%]	anticancer activity compared to control (reduction) [2] [%]	anticancer activity compared to control (reduction) [3] [%]	anticancer activity compared to control (reduction) [4] [%]
O=C1Nc2ccc(Cl)cc2/C1=N/N=C/c1ccsc1 [T2, 5-chloro-3-((E)-(thiophen-3-ylmethylene) hydrazono) indolin-2-one]	~73	–	–	–
O=C1Nc2ccccc2/C1=N\N=Cc1cccs1 [T1, 3-((E)-(thiophen-2-ylmethylene)hydrazono)indolin-2-one]	–	~83	~54	~48
